Measured values reported in US20140010824A1 (priority 2012, published 2014).
≈ marks a conversion by molar mass, not a printed value.

What was measured:
Assay in all cases: microbe, parasite or virus in culture
Yptb(P^−) pGC1 (empty) = type: cell-based; settings: Yersinia pseudotuberculosis, read-out: minimum inhibitory concentration (MIC)
[1] = test system: Yptb(P^−) ΔmrtAB pmrtA^+B^+; type: cell-based; settings: Yersinia pseudotuberculosis, read-out: minimum inhibitory concentration (MIC)
[2] = test system: Yptb(P^−) ΔmrtAB pGC1 (empty); type: cell-based; settings: for MIC: Yersinia pseudotuberculosis, read-out: minimum inhibitory concentration (MIC)
Yptb(P^−) pmrtA^+B^+ = type: cell-based, Yersinia pseudotuberculosis; settings: for MIC: Yersinia pseudotuberculosis, read-out: minimum inhibitory concentration (MIC)
[3] = test system: Yptb(P^−) ΔmrtAB pmrtA^+B^+ flag; type: cell-based; settings: Yersinia pseudotuberculosis, read-out: minimum inhibitory concentration (MIC)

In the case of `CN(C)c1ccc2cc3ccc(N(C)C)cc3nc2c1` [aeridine orange, N,N,N′,N′-tetramethylacridine-3,6-diamine], the MIC (Yptb(P^−) pGC1 (empty)) is reported as 50 µg/mL (≈ 188 µM), the MIC [1] is reported as 50 µg/mL (≈ 188 µM) and the MIC [2] is reported as 50 µg/mL (≈ 188 µM). The MIC (Yptb(P^−) pmrtA^+B^+) was 50 µg/mL (≈ 188 µM).
With `CC[n+]1c(-c2ccccc2)c2cc(N)ccc2c2ccc(N)cc21` [ethidium bromide] the MIC (Yptb(P^−) pGC1 (empty)) was 25 µg/mL, the MIC [3] was 100 µg/mL and the MIC [1] was 100 µg/mL. It also gave an MIC [2] of 25 µg/mL and an MIC (Yptb(P^−) pmrtA^+B^+) of 100 µg/mL.
With `Cn1c2cccc(=O)c-2nc2ccccc21` [pyocyanin] the MIC (Yptb(P^−) pGC1 (empty)) was 1 µg/mL (≈ 4.76 µM), the MIC [3] was 0.25 µg/mL (≈ 1.19 µM) and the MIC [1] was 0.25 µg/mL (≈ 1.19 µM). For the same compound, the “difference in MIC resulting from the absence of MrtAB” value [2] was “No difference was detected”, the MIC [2] was 1 µg/mL (≈ 4.76 µM) and the “change of susceptibility on expression of mrtAB on multi-copy plasmid (pACYC 184 derivative)” value (Yptb(P^−) pmrtA^+B^+) was “increased susceptibility”. For the same compound, the MIC (Yptb(P^−) pmrtA^+B^+) was 0.25 µg/mL (≈ 1.19 µM).
